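1) Cells in 96-well plates. 2) Compound, 48 h, 5 concentrations. 3) Linear interpolation between surrounding doses. 4) Unreached endpoint = highest concentration. Here, GI50 denotes the concentration required for 50% inhibition of growth.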 Active and inactive are the calls of the source. No stated cut-off is given here; in the data, active = GI50 up to about 1.1 µM and inactive = higher.
What was measured:
Assay in all cases: inhibition of tumour cell growth, NCI panel, 48 h
BT-549 = system: BT-549
CCRF-CEM = system: CCRF-CEM
EKVX = system: EKVX
HL-60 = system: HL-60
HOP-92 = system: HOP-92
HT-29 = system: HT-29
NCI/ADR-RES = system: NCI/ADR-RES
OVCAR-3 = system: OVCAR-3
OVCAR-4 = system: OVCAR-4
OVCAR-5 = system: OVCAR-5
RPMI-8226 = system: RPMI-8226
RXF 393 = system: RXF 393
SF-539 = system: SF-539
SK-MEL-28 = system: SK-MEL-28
SN12C = system: SN12C
SNB-75 = system: SNB-75
SW-620 = system: SW-620
U-251 = system: U-251
UO-31 = system: UO-31

SMILES | GI50 (BT-549) | GI50 (CCRF-CEM) | GI50 (EKVX) | GI50 (HL-60) | GI50 (HOP-92) | GI50 (HT-29) | GI50 (NCI/ADR-RES) | GI50 (OVCAR-3) | GI50 (OVCAR-4) | GI50 (OVCAR-5) | GI50 (RPMI-8226) | GI50 (RXF 393) | GI50 (SF-539) | GI50 (SK-MEL-28) | GI50 (SN12C) | GI50 (SNB-75) | GI50 (SW-620) | GI50 (U-251) | GI50 (UO-31)
CCOC(=O)Cc1c(C)c2cc(C(=O)c3ccccc3)c(O)cc2oc1=O | 17.8 µM (inactive) | 31.1 µM (inactive) | 25.5 µM (inactive) | 24.4 µM (inactive) | 21.6 µM (inactive) | 39.2 µM (inactive) | 26.1 µM (inactive) | 17.8 µM (inactive) | 31.8 µM (inactive) | 26 µM (inactive) | 29.3 µM (inactive) | 41.1 µM (inactive) | 20.4 µM (inactive) | 34.2 µM (inactive) | 31.6 µM (inactive) | 30.4 µM (inactive) | 45.1 µM (inactive) | 20.8 µM (inactive) | 
CCN1C/C(=C\c2cc(OC)c(OC)c(OC)c2)C2=NN(c3ccccc3)C(c3cc(OC)c(OC)c(OC)c3)C2C1 (centres undefined) | 6.75 µM (inactive) | 1.81 µM (inactive) | 2.09 µM (inactive) | 3.03 µM (inactive) | 2.92 µM (inactive) | 2.07 µM (inactive) | 1.43 µM (inactive) | 3.63 µM (inactive) | 1.91 µM (inactive) | 2.84 µM (inactive) | 1.13 µM (inactive) | 0.75 µM (active) | 0.535 µM (active) | 0.871 µM (active) | 2.47 µM (inactive) | 0.268 µM (active) | 2.56 µM (inactive) | 0.652 µM (active) | 2.08 µM (inactive)
CCCCS/C(=C(/C#N)C(N)=O)c1cc2c([nH]1)CCCC2 | 11.1 µM (inactive) | 6.7 µM (inactive) | 11.2 µM (inactive) | 3.67 µM (inactive) | 17.1 µM (inactive) | 4.69 µM (inactive) | 8 µM (inactive) | 15.7 µM (inactive) | 16.1 µM (inactive) | 29 µM (inactive) | 6.71 µM (inactive) | 14.9 µM (inactive) | 14.7 µM (inactive) | 14 µM (inactive) | 23.9 µM (inactive) | 15.3 µM (inactive) | 6.12 µM (inactive) | 15.7 µM (inactive) | 13.1 µM (inactive)
CCOC(=O)c1ccc(/N=N/N(C)C(=O)C(C)N)cc1 (centres undefined) | 98.6 µM (inactive) | > 100 µM (inactive) | > 100 µM (inactive) | > 100 µM (inactive) | 46.7 µM (inactive) | > 100 µM (inactive) | > 100 µM (inactive) | > 100 µM (inactive) | > 100 µM (inactive) | > 100 µM (inactive) | > 100 µM (inactive) | > 100 µM (inactive) | > 100 µM (inactive) | > 100 µM (inactive) | > 100 µM (inactive) | 55.8 µM (inactive) | > 100 µM (inactive) | > 100 µM (inactive) | 88.7 µM (inactive)
O=C(NC1CCN(Cc2ccccc2)CC1)c1cccc(I)c1 | 42.5 µM (inactive) | 33.3 µM (inactive) | 45.2 µM (inactive) | 34.4 µM (inactive) | 22 µM (inactive) | 19.5 µM (inactive) | 31.8 µM (inactive) | 40 µM (inactive) | 58.2 µM (inactive) | 30.3 µM (inactive) | 12.5 µM (inactive) | 51.8 µM (inactive) | 22.8 µM (inactive) | 18 µM (inactive) | 60.5 µM (inactive) |  | 17.1 µM (inactive) | 23 µM (inactive) | 17 µM (inactive)
C1CCNCC1.O=C1NC(=S)N/C1=C/c1ccccc1O | > 100 µM (inactive) | > 100 µM (inactive) | > 100 µM (inactive) | > 100 µM (inactive) | > 100 µM (inactive) | > 100 µM (inactive) | > 100 µM (inactive) | > 100 µM (inactive) | > 100 µM (inactive) | > 100 µM (inactive) | 45.2 µM (inactive) | > 100 µM (inactive) | > 100 µM (inactive) | > 100 µM (inactive) | > 100 µM (inactive) |  | > 100 µM (inactive) | > 100 µM (inactive) | 95.3 µM (inactive)
CCOC(=O)c1sc2nc(SC)nc3c2c1NCN3c1ccc(F)c(F)c1 | 6.79 µM (inactive) | 16.7 µM (inactive) | 32.4 µM (inactive) | > 100 µM (inactive) | 18.5 µM (inactive) | 29.8 µM (inactive) | 9.98 µM (inactive) | 5.57 µM (inactive) | 4.76 µM (inactive) | > 100 µM (inactive) | 9.93 µM (inactive) | 6.43 µM (inactive) | 5.2 µM (inactive) | 23.7 µM (inactive) | 30.5 µM (inactive) |  | 10 µM (inactive) | 9.27 µM (inactive) | 22.1 µM (inactive)
Fc1ccc2c(c1)nc1n2C(c2c(F)cccc2F)SC1 (centres undefined) | 42.5 µM (inactive) |  | 29.2 µM (inactive) | 20.7 µM (inactive) | 26.2 µM (inactive) | 31.6 µM (inactive) | 27.1 µM (inactive) | 28.6 µM (inactive) | 48.2 µM (inactive) | 98.6 µM (inactive) | 78.9 µM (inactive) | 62.2 µM (inactive) | > 100 µM (inactive) | > 100 µM (inactive) | 70.8 µM (inactive) | 28.2 µM (inactive) | 69.3 µM (inactive) | 57 µM (inactive) | 25 µM (inactive)
CCNC1=C(NC(=O)CCl)C(=O)c2ccccc2C1=O | > 10 µM (inactive) | 20 µM (inactive) | 16 µM (inactive) | 34.1 µM (inactive) | 21 µM (inactive) | > 10 µM (inactive) | 23.6 µM (inactive) | 17.7 µM (inactive) | 17 µM (inactive) | 19.6 µM (inactive) | 34 µM (inactive) | 16.7 µM (inactive) | 21.7 µM (inactive) | 17.6 µM (inactive) | 17.9 µM (inactive) | > 10 µM (inactive) | 25.8 µM (inactive) | 20.3 µM (inactive) | 
COc1cc(O)c2c(=O)c(OC)c(-c3ccc4c(c3)OCO4)oc2c1OC | 13.4 µM (inactive) | > 50 µM (inactive) | 39 µM (inactive) | > 50 µM (inactive) | 7.6 µM (inactive) | > 50 µM (inactive) | > 50 µM (inactive) | > 50 µM (inactive) | > 50 µM (inactive) | > 50 µM (inactive) |  | 18.9 µM (inactive) | 18.5 µM (inactive) | > 50 µM (inactive) | > 50 µM (inactive) | 11.6 µM (inactive) | > 50 µM (inactive) | 12.9 µM (inactive) | > 50 µM (inactive)
COCc1nc(C#N)c(N)o1 | > 10 µM (inactive) | > 10 µM (inactive) | > 10 µM (inactive) | > 10 µM (inactive) | > 10 µM (inactive) | > 10 µM (inactive) | > 10 µM (inactive) |  | > 10 µM (inactive) |  | > 10 µM (inactive) | > 10 µM (inactive) | > 10 µM (inactive) | > 10 µM (inactive) | > 10 µM (inactive) | > 10 µM (inactive) | > 10 µM (inactive) |  | > 10 µM (inactive)
O=S(=O)(c1ccccc1)N1CCCC(c2ccccc2)CC1 (centres undefined) | 58.3 µM (inactive) | 33.8 µM (inactive) |  | 9.75 µM (inactive) | > 100 µM (inactive) | 15.1 µM (inactive) | 38 µM (inactive) | 53.2 µM (inactive) | 79.1 µM (inactive) | > 100 µM (inactive) | 16.4 µM (inactive) | 41.5 µM (inactive) | > 100 µM (inactive) | > 100 µM (inactive) | 46 µM (inactive) | 30.8 µM (inactive) | 33 µM (inactive) | 45.5 µM (inactive) | 55 µM (inactive)
CCOC1CC(C)N(C(=O)c2ccccc2)O1 (centres undefined) | > 100 µM (inactive) | > 100 µM (inactive) | > 100 µM (inactive) | > 100 µM (inactive) | 31.7 µM (inactive) | > 100 µM (inactive) | > 100 µM (inactive) | > 100 µM (inactive) |  | > 100 µM (inactive) |  | > 100 µM (inactive) | > 100 µM (inactive) | > 100 µM (inactive) | > 100 µM (inactive) |  | > 100 µM (inactive) | > 100 µM (inactive) | > 100 µM (inactive)
NS(=O)(=O)c1nnc(NS(=O)(=O)c2ccc([N+](=O)[O-])cc2)s1 | > 100 µM (inactive) |  | > 100 µM (inactive) | > 100 µM (inactive) | > 100 µM (inactive) | > 100 µM (inactive) | > 100 µM (inactive) | > 100 µM (inactive) | > 100 µM (inactive) | > 100 µM (inactive) | 21.4 µM (inactive) | > 100 µM (inactive) | > 100 µM (inactive) | > 100 µM (inactive) |  | > 100 µM (inactive) | > 100 µM (inactive) | > 100 µM (inactive) | > 100 µM (inactive)
COc1cc(S(=O)(=O)Nc2ccc(-c3csc(N4C(=O)C(C)SC4c4cccs4)n3)cc2)ccc1Cl (centres undefined) | 34 µM (inactive) | 8.28 µM (inactive) | 57.5 µM (inactive) | 18.7 µM (inactive) | 20.1 µM (inactive) | 30.5 µM (inactive) | > 100 µM (inactive) | 58.5 µM (inactive) |  | > 100 µM (inactive) | 24.1 µM (inactive) | 11.1 µM (inactive) | 48.9 µM (inactive) | 23.8 µM (inactive) | 39.3 µM (inactive) |  | 34.4 µM (inactive) |  | 46.3 µM (inactive)
Nc1nc(SCc2ccccc2Cl)cc(C(=O)O)n1 | 97.9 µM (inactive) | 32.2 µM (inactive) | 54.1 µM (inactive) | 64.1 µM (inactive) | 46.2 µM (inactive) | > 100 µM (inactive) | 33.4 µM (inactive) | 28.6 µM (inactive) | 60 µM (inactive) | 78 µM (inactive) | 54.1 µM (inactive) | > 100 µM (inactive) |  | 87.3 µM (inactive) | 97.1 µM (inactive) | > 100 µM (inactive) | 70.6 µM (inactive) | 54.8 µM (inactive) | 67 µM (inactive)
